For assay [1], the system named is Ishikawa cells. The assay is described as follows: Mitochondrial membrane potential (rhodamine 123 staining). It is filed as cell-based, human. The note with it: Ishikawa cells, 0.1, 0.5 and 1 μM, 24 h. As for the experimental part:
Mitochondrial membrane potential was measured by rhodamine-123 (RH-123) staining. Ishikawa cells were treated at 0.1, 0.5, and 1 μM of compound 14. Rhodamine dyes accumulate within active and polarised mitochondria under physiological conditions, resulting in robust fluorescence signals. A decline in rhodamine fluorescence intensity is observed when the dyes fail to accumulate within the mitochondria. This happens when the mitochondrial transmembrane potential is compromised. […] The decreased fluorescence patterns associated with apoptotic cell death indicate progressive dissipation of the mitochondrial transmembrane potential (Figure 12).
Rhodamine staining was employed to investigate apoptosis induced by compound 14 in Ishikawa cells. Under physiological conditions, rhodamine dyes are known to accumulate within active and polarised mitochondria, resulting in robust fluorescence signals. However, when the mitochondrial transmembrane potential is compromised the dyes fail to accumulate within the mitochondria, leading to a decline in rhodamine fluorescence intensity. The Rhodamine staining protocol followed was as follows: Ishikawa cells were treated at 0.1, 0.5, and 1 μM for 24 h, and RH-123 (1 μg) (Cat No. R8004) was added 30 min before the termination of the experiment and then washed with PBS before analysis on a fluorescence microscope.[61]

The subject of assay [2] is Ishikawa cells. The assay is described as follows: Cell cycle analysis (flow cytometry). The assay is classed as cell-based, human. The note with it: 0.5 µM and 1 µM, 48 h, vs control group. How it is done:
Furthermore, the regulatory effect of compound 14 in the cell cycle distribution of Ishikawa cancer cells was evaluated via flow cytometric analysis. Ishikawa cells seeded on a 6-well plate (3 × 10^5 cells/well) were treated with compound 14 for 48 h. After 48 h treatment of Ishikawa cells with compound 14, the cell cycle started to be arrested at the G2/M phase.
Cells were treated with compound 14 (10, 50, 100, 500 and 1000 nM) for […], collected and washed once with PBS. The pellet was then fixed in 70% ethanol overnight, followed by one washing with PBS and incubation with RNAse A for 90 min at 37 °C. Cells were then stained with PI and acquired in FACS. Analysis of the data was done by Modfit software (Verity Software House Inc., Topsham, ME) for the proportions of different cell cycle phases.[69]
On the technique in general: In flow cytometry, cells or beads pass a laser one at a time.

For assay [3], the system named is LC3 in Ishikawa cells. Nature of the assay: Western blotting, cleavage of LC-3. The assay is classed as cell-based, human. The note with it: Ishikawa cells, 100, 500 and 1000 nM, 24 h. How it is done: Literature precedents indicate that autophagy triggers the cleavage of tubulin-associated protein LC-3 yielding cytosolic LC3-I (18 kDa) and autophagosome-associated LC3-II (16 kDa).[50–58] Thus, the ability of compound 14 was evaluated to induce the cleavage of this cytosolic protein. […] Considering the aforementioned cleavage of cytosolic microtubule-associated protein light chain-3 (LC3)-I into LC3-II as an autophagy-specific marker, it was deduced that 14 is an autophagy inducer.
Ishikawa cells were treated with compound-14 at 100, 500, and 1000 nM concentrations for 24 h. After 24h cells were collected and centrifuged at 400 g, washed in PBS and cell pellets were lysed in RIPA buffer in preparation of the whole cell lysate. Supernatants were collected and proteins were estimated using the Bradford reagent. An equal amount of protein (60–80 µg) was loaded into each well for SDS-PAGE. Blocking was done with 5% BSA at room temperature with shaking for 2 h. After the SDS page run was completed, we washed the PVDF membrane and then blocking was done. Blots were incubated with different primary antibodies(1:1000 dilutions), and secondary antibodies (1:10 000 dilutions) and chemiluminescence was captured on Chemidoc after incubating the blots in ECL plus solution. […]
A general note: A western blot detects proteins with antibodies after separation by electrophoresis.

In assay [4] the target is T1, PARP1 (Homo sapiens, UniProt P09874).
T1 construct: Reaction Biology Corporation (assay service)
The assay is described as follows: PARP inhibitory assay (NAD/NADH-Glo endpoint, Reaction Biology). To be noted: 10-dose IC50, 3-fold serial dilution. It is filed as biochemical. As for the experimental part: (§1) As such, PARP enzymatic activity transfers ADP-ribose from NAD + substrate into the PAR chain on histone substrate. The amount of NAD + remaining after the enzymatic activity was quantified using the Promega NAD/NADH-Glo™ assay kit, in the endpoint PARP activity assay.
(§2) Enzyme inhibition assays were performed by the Reaction Biology Corporation, Malvern, PA. (http://www.reactionbiology.com). PARP enzymatic activity transfers ADP-ribose from NAD + substrate into the PAR chain on histone substrate. […] NAD+ (Nicotinamide Adenine Dinucleotide), 500 nM; Protein substrate for PARP1, core histones from chicken, 10 µg/mL; protein substrate for PARP2, 5 µM.

In assay [5] the target is T2, PARP2 (Homo sapiens, UniProt Q9UGN5).
T2 construct: Reaction Biology Corporation (assay service)
The assay is described as above. It is filed as biochemical. To be noted: 10-dose IC50, 3-fold serial dilution. As for the experimental part:
as §1, §2

In assay [6] the test system is Ishikawa cells. Nature of the assay: Nuclear and cellular morphology (DAPI staining), apoptosis. The assay is classed as cell-based, human. To be noted: Ishikawa cells, 0.1, 0.5 and 1 μM, 24 h. As for the experimental part:
Ishikawa cell lines were treated with compound 14 at concentrations of 0.1, 0.5, and 1 μM for 24 h. Cellular morphology was observed by an inverted microscope. DAPI staining was done to monitor the nuclear morphology. […] Thus, the results were indicative of the apoptosis-inducing ability of compound 14 (Figure 9).
Ishikawa was treated with compounds 14 at concentrations of 0.1, 0.5, and 1 μM for 24 h. Briefly, cells were collected, washed twice with PBS, and fixed with methanol: acetic acid (3:1 ratio v/v). The next day, cells were washed and dispensed in 50 μL of fixing solution. Cells were then spread on clean slides, and exposed to DAPI solution (4′,6-diamidino-2-phenylindole(DAPI) (CAS Number: 28718–90-3) (5 μg/mL in 0.01 M citric acid and 0.45 M disodium phosphate containing 0.05% Tween 20) for 30 min at room temperature. The slides were then rinsed with distilled water for 10 min, and washed with PBS. After drying, the slides were mounted with glycerol: PBS (1:1 ratio v/v) and observed under the fluorescent microscope to figure out any nuclear morphological changes that occur during apoptosis.[60]

The target of assay [7] is T3, Tubulin (Sus scrofa, UniProt P02550+P02554).
T3 construct: purchased Cytoskeleton T240 (kit BK006P)
The assay is described as follows: In vitro microtubule assembly (tubulin polymerisation) assay. The assay is classed as biochemical. The note with it: treatment concentrations 0.1, 1, 5, 10 μM; mean ± SD of three experiments. As for the experimental part: The assay was performed using the tubulin polymerisation kit (BK006P,Cytoskeleton). Pure tubulin (cat. # T240) was equilibrated in 80 mM PIPES, 1 mM EGTA, 1 mM MgCl2, pH 6.8 buffer (BRB80) and centrifuged at 75 000 rpm for 10 min in an TLA-100 rotor in a centrifuge.

SMILES strings stand for the structures. Where “and” joins values, the source holds several entries; their conditions need not be identical. Identical values can stand only once.

T1 sequence (P09874 whole entry): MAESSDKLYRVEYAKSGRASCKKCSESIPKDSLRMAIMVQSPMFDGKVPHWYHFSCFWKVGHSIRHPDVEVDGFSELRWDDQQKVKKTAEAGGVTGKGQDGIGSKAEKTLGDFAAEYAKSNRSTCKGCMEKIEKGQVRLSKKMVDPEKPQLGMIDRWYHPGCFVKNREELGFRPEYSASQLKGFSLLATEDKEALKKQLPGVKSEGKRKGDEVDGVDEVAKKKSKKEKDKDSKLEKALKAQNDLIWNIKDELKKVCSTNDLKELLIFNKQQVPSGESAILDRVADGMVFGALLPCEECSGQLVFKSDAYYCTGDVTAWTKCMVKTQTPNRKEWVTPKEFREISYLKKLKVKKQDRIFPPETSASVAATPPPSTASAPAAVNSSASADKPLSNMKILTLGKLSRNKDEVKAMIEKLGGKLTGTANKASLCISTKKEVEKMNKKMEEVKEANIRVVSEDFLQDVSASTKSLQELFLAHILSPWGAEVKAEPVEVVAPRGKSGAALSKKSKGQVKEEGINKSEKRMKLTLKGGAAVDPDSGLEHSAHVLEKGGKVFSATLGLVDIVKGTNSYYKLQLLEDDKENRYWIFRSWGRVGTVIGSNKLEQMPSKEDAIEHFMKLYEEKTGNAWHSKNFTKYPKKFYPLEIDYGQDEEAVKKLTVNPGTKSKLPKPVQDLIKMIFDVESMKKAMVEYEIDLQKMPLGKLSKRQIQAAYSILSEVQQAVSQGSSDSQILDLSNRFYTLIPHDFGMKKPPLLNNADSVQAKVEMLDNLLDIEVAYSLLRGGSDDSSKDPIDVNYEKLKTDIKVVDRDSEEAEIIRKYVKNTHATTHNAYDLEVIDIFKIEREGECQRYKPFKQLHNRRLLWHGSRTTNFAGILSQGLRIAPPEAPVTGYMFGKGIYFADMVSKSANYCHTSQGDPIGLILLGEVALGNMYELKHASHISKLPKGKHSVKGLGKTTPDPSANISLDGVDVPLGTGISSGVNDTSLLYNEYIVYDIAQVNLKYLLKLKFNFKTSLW
T2 sequence (Q9UGN5 whole entry): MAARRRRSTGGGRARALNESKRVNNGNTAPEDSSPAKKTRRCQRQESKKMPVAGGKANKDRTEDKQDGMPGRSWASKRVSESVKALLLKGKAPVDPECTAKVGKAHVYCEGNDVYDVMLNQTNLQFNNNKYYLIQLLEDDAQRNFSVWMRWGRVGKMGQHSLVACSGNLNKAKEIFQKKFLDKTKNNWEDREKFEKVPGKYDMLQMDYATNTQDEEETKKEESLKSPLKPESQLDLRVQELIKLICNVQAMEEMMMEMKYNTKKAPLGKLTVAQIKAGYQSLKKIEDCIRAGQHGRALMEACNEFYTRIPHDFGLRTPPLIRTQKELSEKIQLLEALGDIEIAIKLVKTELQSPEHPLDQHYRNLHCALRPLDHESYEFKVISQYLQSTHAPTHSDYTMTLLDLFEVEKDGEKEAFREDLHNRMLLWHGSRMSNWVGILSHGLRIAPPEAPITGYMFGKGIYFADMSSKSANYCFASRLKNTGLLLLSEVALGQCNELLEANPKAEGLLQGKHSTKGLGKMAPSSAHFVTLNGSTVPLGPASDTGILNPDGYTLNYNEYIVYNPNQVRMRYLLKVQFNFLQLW
T3 sequence (P02550 whole entry): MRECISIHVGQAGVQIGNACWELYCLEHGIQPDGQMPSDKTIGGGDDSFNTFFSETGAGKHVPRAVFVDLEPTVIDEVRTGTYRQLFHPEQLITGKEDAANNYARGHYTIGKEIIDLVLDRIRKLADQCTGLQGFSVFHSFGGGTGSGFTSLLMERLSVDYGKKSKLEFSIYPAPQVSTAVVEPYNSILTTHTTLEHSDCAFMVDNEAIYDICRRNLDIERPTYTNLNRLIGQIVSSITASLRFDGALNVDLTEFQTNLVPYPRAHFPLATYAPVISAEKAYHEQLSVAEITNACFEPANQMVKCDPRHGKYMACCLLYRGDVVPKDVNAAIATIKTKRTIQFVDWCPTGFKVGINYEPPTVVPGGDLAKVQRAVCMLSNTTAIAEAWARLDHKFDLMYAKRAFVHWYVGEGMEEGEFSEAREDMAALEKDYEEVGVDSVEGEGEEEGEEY
T3 sequence (P02554 whole entry): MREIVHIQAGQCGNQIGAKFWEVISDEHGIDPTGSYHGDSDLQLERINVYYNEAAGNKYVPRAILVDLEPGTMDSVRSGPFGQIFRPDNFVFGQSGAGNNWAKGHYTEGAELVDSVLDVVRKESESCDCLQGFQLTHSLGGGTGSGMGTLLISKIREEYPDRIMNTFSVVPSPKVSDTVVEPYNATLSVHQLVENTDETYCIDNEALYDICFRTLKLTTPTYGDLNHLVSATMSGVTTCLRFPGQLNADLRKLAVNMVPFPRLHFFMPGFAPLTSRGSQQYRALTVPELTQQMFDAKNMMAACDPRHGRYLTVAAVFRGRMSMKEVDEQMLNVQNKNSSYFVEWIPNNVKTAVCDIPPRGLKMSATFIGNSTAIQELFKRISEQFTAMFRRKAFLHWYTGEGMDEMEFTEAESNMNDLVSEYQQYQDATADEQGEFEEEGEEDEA

Take `O=c1cc(-c2ccc(F)cc2)oc2cc(-c3ccoc3)ccc12` [Compound 14, 2–(4-fluorophenyl)-7-(furan-3-yl)-4H-chromen-4-one]: in assay [1], the “Mitochondrial membrane potential (rhodamine 123 fluorescence)” value is “reduction in rhodamine fluorescence in a concentration-dependent manner”. In addition, the “Cell cycle distribution (G2/M phase arrest)” value in assay [2] is given as “significant increase in G2/M phase cell cycle arrest”. In addition, in assay [3], the “Cleavage of LC-3 (autophagy marker, western blot)” value is on record as “concentration-dependent cleavage of LC3”. The IC50 (as a rule, the concentration that inhibits the measured activity by half) in assay [4] is 74 nM and 74.6 nM; in assay [5] it was 109 nM; in assay [7], 1.4 ± 0.3 µM. Moreover, the “Apoptosis induction (nuclear morphology, DAPI staining)” value in assay [6] is “concentration-dependent increase in the number of scattered apoptotic bodies”.

The values above are taken from publication PMC10627047, “Flavone-based dual PARP-Tubulin inhibitor manifesting efficacy against endometrial cancer” (Journal of Enzyme Inhibition and Medicinal Chemistry, 2023).
